Active and inactive are the calls of the source. The rule behind the calls is not given here.

The assay deals with General amino acid permease AGP1 (Saccharomyces cerevisiae (strain ATCC 204508 / S288c)) (UniProt P25376). Kind of assay: AGP1-GFP fusion level modulation in yeast, dose response, TOR pathway, S. cerevisiae, flow cytometry, KU SAR set 2, multiplex (AID 504458). Conditions: flow cytometry fluorescence, 3 h. In general terms: In flow cytometry, cells or beads pass a laser one at a time.
Chain of General amino acid permease AGP1 (Saccharomyces cerevisiae (strain ATCC 204508 / S288c)) (P25376 whole entry, looked up, the tested form may be a part): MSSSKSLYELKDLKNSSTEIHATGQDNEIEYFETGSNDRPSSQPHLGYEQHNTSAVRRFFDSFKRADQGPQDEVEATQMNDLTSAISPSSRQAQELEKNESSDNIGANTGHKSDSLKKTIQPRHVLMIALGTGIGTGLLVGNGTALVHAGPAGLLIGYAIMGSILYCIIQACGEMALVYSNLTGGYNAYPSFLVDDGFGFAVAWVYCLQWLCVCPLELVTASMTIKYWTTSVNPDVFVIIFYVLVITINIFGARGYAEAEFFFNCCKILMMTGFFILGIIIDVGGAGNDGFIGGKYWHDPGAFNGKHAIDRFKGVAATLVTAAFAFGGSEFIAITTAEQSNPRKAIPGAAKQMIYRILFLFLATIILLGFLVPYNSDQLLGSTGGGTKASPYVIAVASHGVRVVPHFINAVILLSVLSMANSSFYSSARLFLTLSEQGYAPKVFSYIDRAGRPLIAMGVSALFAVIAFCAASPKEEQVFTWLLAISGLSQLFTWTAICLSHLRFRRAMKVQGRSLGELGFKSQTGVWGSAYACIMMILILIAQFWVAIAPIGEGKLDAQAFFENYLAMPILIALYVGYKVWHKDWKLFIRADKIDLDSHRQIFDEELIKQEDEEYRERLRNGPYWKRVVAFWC
Regarding `CNc1nc(N)c(C(=O)c2ccc(C)c(C)c2)c(Nc2cccc(Cl)c2)n1`, the EC50 (in general, the concentration at which the effect is half-maximal) was “inactive”.
The entry for `O=[N+]([O-])c1c(NC2CCCCC2)nc(NCc2ccccc2)nc1N1CCOCC1` is “inactive”; for `CNc1nc(N)cc(Nc2ccccc2F)n1` it is “inactive”.
Under `Cc1cc(Nc2cc(-c3ccccc3)nc(NCc3ccccc3)n2)n[nH]1` stands “inactive”.
The entry for `CCOC(=O)c1c(N)nc(NC)nc1Nc1cccc(F)c1` is “inactive”; for `COc1ccccc1-c1cc(Nc2cc(C)[nH]n2)nc(NCc2ccccc2)n1` it is “inactive”; for `COC(=O)c1cccc(-c2cc(Nc3cc(C)[nH]n3)nc(NCc3ccccc3)n2)c1` it is “inactive”.
As for `CCNc1nc(N)c([N+](=O)[O-])c(Nc2cccc(Cl)c2)n1`, the EC50 was 9.69 µM.
For the compound `Cc1cc(Nc2cc(Nc3ccccc3)nc(NCc3ccccc3)n2)n[nH]1`, the EC50 result is “inactive”.
The entry for `CNc1nc(N)cc(Nc2cccc(Cl)c2)n1` is “inactive”; for `CNc1nc(NC)c([N+](=O)[O-])c(Nc2cccc(Cl)c2)n1` it is “inactive”.
Consider `CNc1nc(N)c([N+](=O)[O-])c(Nc2cccc(Oc3ccccc3)c2)n1`, for which the EC50 entry is “inactive”.
Under `CNc1nc(N)c([N+](=O)[O-])c(Nc2ccccc2Br)n1` stands “inactive”.
Regarding `CNc1nc(N)cc(Oc2cccc(Cl)c2)n1`, the EC50 result is “inactive”.
The entry for `CCNc1nc(NC2CCCCC2)c([N+](=O)[O-])c(N2CCOCC2)n1` is “inactive”.

The values above are taken from PubChem BioAssay AID504458 (NMMLSC, 2011).
